Experimental data published in US10472334B2, “Small molecules for inhibiting male fertility” (The University of North Carolina at Chapel Hill, priority 2014, dated 2019).
Where two headings read alike, the source gives them in different places.

Legend:
[1] = test system: human sperm motility; assay: Computer-assisted sperm analysis (CASA) of human sperm motility; type: cell-based; settings: for IC50: Homo sapiens, Sperm
Method: In another embodiment, a computer-assisted sperm analysis (CASA) can be used as a live cell compound screen for determining the effect of compounds on human sperm motility. Additionally, to facilitate the IC50 evaluation of compounds using different ejaculates, reducing inter-assay variation due to differences in sperm quality in different semen samples, an index of relative motility inhibition (RMI) was developed.
This is calculated as: RMI=[% motility*VSL]; percentage of motile sperm (% motility) or the percentage of progressively motile sperm (% progressive motility, RPMI) multiplied by the straight-line velocity (VSL); the average velocity measured in a straight line from the beginning to the end of a track in μm/sec.
Normalized RMI can be calculated by dividing the RMI of each experimental condition by its respective DMSO control.
Computer-assisted sperm analysis (CASA) was used as a live cell compound screen for determining the effect of compounds on human sperm motility. Computer-assisted sperm analysis (CASA) was performed using the approach taught in Mitra et al., Biology of Reproduction, Vol. 82, p 491 (2010), to determine the parameters of the control versus compound-treated spermatozoa. The parameters measured are: average pathway velocity (VAP: the average velocity of the smoothed cell path in 1 m/sec), the straight-line velocity (VSL: the average velocity measured in a straight line from the beginning to the end of track in 1 m/sec), the curvilinear velocity (VCL: the average velocity measured over the actual point-to-point track of the cell in 1 m/sec), the lateral head amplitude (ALH: amplitude of lateral head displacement in 1 m), the beat cross-frequency (BCF: frequency of sperm head crossing the sperm average path in Hz), the straightness (STR: the average value of the ratio VSL/VAP in %), and the linearity (LIN: the average value of the ratio VSL/VCL in %). The sperm motility parameters are assessed in pre-warmed (37° C.) two- or four-chambered 20-mm Leja slides, loading 5 μL or 2 μL, respectively, of the samples in each chamber and immediately using CASA. This computerized measuring device included a phase-contrast microscope (Olympus CX41), a camera, a mini-therm stage warmer, an image digitizer, and a computer to store and analyze data. The software used for data analysis is the HTR Ceros 12.3 (Hamilton-Thorne Biosciences). A range of 13 to 20 fields are scanned from each chamber. Progressive cells had to have a minimum of 25 μm/sec VAP and 80% of STR.
To facilitate the IC50 evaluation of compounds using different ejaculates, reducing inter-assay variation due to differences in sperm quality in different semen samples, an index of relative motility inhibition (RMI) was developed. This is calculated as: RMI=[% motility*VSL]; percentage of motile sperm (% motility) or the percentage of progressively motile sperm (% progressive motility, RPMI) multiplied by the straight-line velocity (VSL); the average velocity measured in a straight line from the beginning to the end of a sperm track in μm/sec. Normalized RMI (RPMI) was calculated by dividing the RMI of each experimental condition by its respective DMSO control.
The analysis of sperm motility was carried out with computer-assisted sperm analysis (CASA) (Ceros version 12.3 software; Hamilton-Thorne), using the techniques taught in Mitra et al., Biology of Reproduction, Vol. 82, p 491 (2010).

[2] = Aqueous solubility (nephelometric method); type: physicochemical; settings: at 100 μM
Method: Solutions of the test compound were prepared from DMSO stock solution at the specified test concentrations. The solutions were mixed thoroughly and aliquoted into a 384-well plate, incubated for 1 hour at 37° C., and the degree of light scattering in each solution was measured at 635 nm using a laser-based microplate nephelometer. The mean nephelometric reading at each concentration was calculated and compared to that of the blank solution and a positive control (a solution of latex at a minimum concentration sufficient to give a mean reading higher than that of blank solution, as determined by a calibration curve). The compound was judged to be soluble at a specific concentration if the mean reading was less than the reading of the positive control. In cases where the mean reading was greater than or equal to the positive control, the solution was reported as having a precipitate and a percent precipitation value was calculated using the following formula: % precipitation=(mean test compound−mean blank)/(mean positive control−mean blank)×100

[3] = In vitro metabolism, human liver microsomes; type: in vitro ADME; settings: read-out: Human liver microsomes metabolism T½
Method: In vitro metabolism was evaluated using the methods described in Obach, R. S. et al. (1997), J. Pharmacol. Exp. Ther., 283: 46-58.
Intrinsic Clearance (microsomes, S9, cryopreserved hepatocytes, recombinant CYP, recombinant UGT) Metabolic stability, expressed as percent of the parent compound remaining, was calculated by comparing the peak area of the compound at the time point relative to that at time-O. The half-life (T½) was estimated from the slope of the initial linear range of the logarithmic curve of compound remaining (%) vs. time, assuming the first-order kinetics. The apparent intrinsic clearance (CLint, in μL/min/pmol, μL/min/mg or μL/min/Mcell) was calculated according to the following formula: […]

[4] = test system: human spermatozoa; assay: Internal sperm pH detection with BCECF; type: cell-based; settings: FIG. 6, 10 and 20 μM
Method: A series of experiments was performed to determine the mechanism of action of the compounds described herein. The experiments were carried out as described in O'Rand and Widgren, “Loss of Calcium in Human Spermatozoa via EPPIN, the Semenogelin Receptor,” Biology of Reproduction, (2012) 86(2):55, 1-7.
The AM ester derivative of the pH-sensitive dye BCECF (5 μM; Molecular Probes) was used to detect changes in the pH in spermatozoa treated with SEMG1. Spermatozoa were loaded with BCECF-AM for 30 min in bovine serum albumin-free medium, centrifuged to remove extracellular dye, and resuspended in M16M. Changes to 1.13105-0.93105 spermatozoa/well in 50 μl of M16M at 378 C after treatment with 3.2 μM SEMG1 were monitored in a BioTek (Winookski, Vt.) Synergy2 Multiplatform automated plate reader (with heater and shaker); wells were excited using a 485/20 filter and emission read with a 528/20 filter. Fluorescence was read immediately and recorded every 10 sec; readings for each time point were normalized, averaged, and expressed as percentages of decrease in relative fluorescent units. Data from three ejaculate samples are reported.

For `CCOC(=O)CSc1nc(NNC(=O)OC)nc(Nc2ccc(NC(=O)OC)c(O)c2)n1` [TZ4_121, [4-(3-Hydroxy-4-methoxycarbonylamino-phenylamino)-6-(N′methoxycarbonyl-hydrazino)-1,3,5-triazin-2-ylsulfanyl]-acetic acid ethyl ester], the “change in progressive motility” value ([1]; FIG. 7, 12.5 μM) was “significant decrease in progressive motility”, the IC50 ([1]; FIG. 10, RMI using % progressive motility, read-out: IC50 in terms of progressive motility) was roughly 4.3 µM and the IC50 ([1]; FIGS. 3 and 4, read-out: IC50, CASA, RMI (relative motility)) was roughly 7.5 µM. The IC50 ([1]; relative motility index using % progressive motility, read-out: CASA IC50 RPMI) was 7.5 µM, the “time until infertility would likely result, time course of sperm motility” value ([1]; concentration of around 20 μM, FIG. 5) was 3 to 5 min and the sperm killed ([1]; within 3 minutes) was greater than 70%. The solubility [2] was “Good”, the half-life [3] was 41 min and the “change in internal sperm pH” value [4] was “significant decrease in pH”.
